One test deals with hD2L receptors (Homo sapiens, UniProt P14416). The test can be described thus: D2R Gi/o-mediated cAMP inhibition assay. Conditions: for Emax: HEK-293T. It counts as cell-based.
The target of another test is D2L receptors (Homo sapiens, UniProt P14416). Nature of the test: D2R β-arrestin-2 recruitment Tango assay. It counts as cell-based. The settings on record: for EC50: β-arrestin EC50 (nM), HTLA cells; for Emax: HTLA, read-out: β-arrestin Emax (%). For orientation: Arrestin recruitment assays detect the binding of arrestin to an activated receptor.
The mark [1] stands for this setting: read-out: cAMP Emax (%), HEK293T cells, GloSensor-22F, normalized to maximum cAMP inhibition by quinpirole (100%).

Molecules are shown by their SMILES. Where two headings read alike, the source gives them in different places.

hD2L receptors, sequence (P14416 whole entry): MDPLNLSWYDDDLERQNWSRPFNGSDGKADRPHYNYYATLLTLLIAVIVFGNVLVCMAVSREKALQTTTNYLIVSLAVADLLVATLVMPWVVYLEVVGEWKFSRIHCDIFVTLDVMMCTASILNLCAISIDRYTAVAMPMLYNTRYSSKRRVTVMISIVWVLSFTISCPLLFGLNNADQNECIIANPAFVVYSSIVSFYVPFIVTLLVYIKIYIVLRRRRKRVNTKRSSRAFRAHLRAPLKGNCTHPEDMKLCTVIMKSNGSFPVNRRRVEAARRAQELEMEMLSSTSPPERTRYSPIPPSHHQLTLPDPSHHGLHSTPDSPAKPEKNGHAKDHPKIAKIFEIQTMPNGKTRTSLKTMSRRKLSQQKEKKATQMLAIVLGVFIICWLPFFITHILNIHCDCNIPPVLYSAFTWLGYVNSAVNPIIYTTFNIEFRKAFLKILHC
D2L receptors, sequence (P14416 whole entry): as above

Broadly, the Emax is the size of the effect at its maximum, as opposed to the concentration needed. For orientation: EC50 means the concentration giving half of the maximal effect. Read a low EC50 as higher potency in that assay. Regarding `Cc1nc2cc(OCCCCN3CCN(c4cccc5c4OCCO5)CC3)ccc2s1` [Compound 40, 5-(4-(4-(2,3-Dihydrobenzo[b][1,4]dioxin-5-yl)piperazin-1-yl)butoxy)-2-methylbenzo[d]thiazole], on hD2L receptors (read-out: cAMP Emax (%)), the maximum response (Emax) was 50%. Besides, a half-maximal response on D2L receptors (Tango assay) (EC50) required 3.6 nM.

In the case of `FC(F)(F)c1nc2cc(OCCCCN3CCN(c4cccc(Cl)c4Cl)CC3)ccc2s1` [Compound 11, 5-(4-(4-(2,3-Dichlorophenyl)piperazin-1-yl)butoxy)-2-(trifluoromethyl)benzo[d]thiazole], the maximum response (Emax) at D2L receptors was 40%.

Turning to `Cc1nc2cc(OCCCCN3CCN(c4cccc5[nH]c(=O)oc45)CC3)ccc2s1` [Compound 45, 7-(4-(4-((2-Methylbenzo[d]thiazol-5-yl)oxy)butyl)piperazin-1-yl)benzo[d]oxazol-2(3H)-one], the maximal effect (Emax) on hD2L receptors (read-out: cAMP Emax (%)) was found to be 90%; at D2L receptors, 88%. This compound had an EC50 on D2L receptors (Tango assay) of 0.36 nM.

Turning to `Cc1nc2cc(OCCCCN3CCCN(c4cccc(Cl)c4Cl)CC3)ccc2s1` [Compound 31, 5-(4-(4-(2,3-Dichlorophenyl)-1,4-diazepan-1-yl)butoxy)-2-methylbenzo[d]thiazole], the Emax at hD2L receptors (read-out: cAMP Emax (%)) was 22%; at D2L receptors it was under 20%. Moreover, the “activity in β-arrestin recruitment (in words)” value on D2L receptors (Tango assay) was “inactive”.

Take `COc1ccccc1N1CCN(CCCCOc2ccc3sc(C)nc3c2)CC1` [Compound 32, 5-(4-(4-(2-Methoxyphenyl)piperazin-1-yl)butoxy)-2-methylbenzo[d]thiazole]: the figures for the Emax at hD2L receptors (read-out: cAMP Emax (%)) and on D2L receptors were 61% and 25%, respectively. The “decrease of potency in Gi/o pathway compared to compound 1” value on hD2L receptors (cAMP inhibition assay) is on record as “around 5 fold”. In addition, the half-maximal effective concentration (EC50) at D2L receptors (Tango assay) turned out to be 8.5 nM.

Consider `Cc1nc2cc(OCCCCN3CCN(c4cccc(Cl)c4Cl)[C@@H](C)C3)ccc2s1` [Compound 34, (S)-5-(4-(4-(2,3-Dichlorophenyl)-3-methylpiperazin-1-yl)butoxy)-2-methylbenzo[d]thiazole], for which the “activity in Gi/o signaling (in words)” value at hD2L receptors (cAMP inhibition assay) was “no appreciable activity”. The “activity in β-arrestin recruitment (in words)” value at D2L receptors (Tango assay) is given as “no appreciable activity”.

With `Cc1nc2ccc(OCCCCN3CCN(c4cccc(Cl)c4Cl)CC3)cc2s1` [Compound 3, 6-(4-(4-(2,3-Dichlorophenyl)piperazin-1-yl)butoxy)-2-methylbenzo[d]thiazole], the maximal effect (Emax) at hD2L receptors (read-out: cAMP Emax (%)) came to 42%. In addition, on hD2L receptors (cAMP inhibition assay), the “decrease of potency in Gi/o pathway compared to compound 1” value is given as 2 fold. Moreover, the maximum response (Emax) on D2L receptors worked out at 22%. At D2L receptors (Tango assay), the “decrease of potency in β-arrestin recruitment compared to compound 1” value was 5 fold and a half-maximal effect (EC50) was put at 76 nM.

As for `CC(C)c1nc2cc(OCCCCN3CCC(c4cccc(Cl)c4Cl)CC3)ccc2s1` [Compound 47, 5-(4-(4-(2,3-Dichlorophenyl)piperidin-1-yl)butoxy)-2-isopropylbenzo[d]thiazole], the maximal response (Emax) on hD2L receptors (setting [1]) is 33%; at D2L receptors it was under 20%.

Consider `CCc1nc2cc(OCCCCN3CCN(c4cccc5ccc(C)nc45)CC3)ccc2s1` [Compound 48, 2-Ethyl-5-(4-(4-(2-methylquinolin-8-yl)piperazin-1-yl)butoxy)benzo[d]thiazole], for which the figures for the maximal effect (Emax) at hD2L receptors (setting [1]) and on D2L receptors were 33% and under 20%, respectively.

As to `CCc1nc2cc(OCCCCN3CCN(c4cccc5c4OCCN5)CC3)ccc2s1` [Compound 50, 8-(4-(4-((2-Ethylbenzo[d]thiazol-5-yl)oxy)butyl)piperazin-1-yl)-3,4-dihydro-2H-benzo[b][1,4]oxazine], at D2L receptors, the Emax was found to be 33%. Moreover, a half-maximal effect at D2L receptors (Tango assay) (EC50) was put at 6.4 nM.

As to `CC(C)c1nc2cc(OCCCCN3CCN(c4cccc5c4OCCN5)CC3)ccc2s1` [Compound 51, 8-(4-(4-((2-Isopropylbenzo[d]thiazol-5-yl)oxy)butyl)piperazin-1-yl)-3,4-dihydro-2H-benzo[b][1,4]oxazine], on hD2L receptors (setting [1]), the Emax was determined as 48%.

For `Cc1nc2cc(OCCCN3CCN(c4cccc(Cl)c4Cl)CC3)ccc2s1` [Compound 2, 5-(3-(4-(2,3-Dichlorophenyl)piperazin-1-yl)propoxy)-2-methylbenzo[d]thiazole], the “D2R agonist profile in β-arrestin and Gi/o pathways” value at hD2L receptors (compared with β-arrestin recruitment Tango assay) was “balanced D2R agonist”.

These data come from publication PMC5148701 (Journal of medicinal chemistry, 2016).
